Measurements published in ChEMBL document CHEMBL1138648, “Synthesis of new N-(2-(trifluoromethyl)pyridin-4-yl)anthranilic acid derivatives and their evaluation as anticancer agents” (2004).

Columns and labels:
Type in all cases: functional
HOP-62 = assay: Growth inhibitory activity against non small cell lung cancer HOP-62 cell line was determined; details: Homo sapiens
OVCAR-8 = assay: Growth inhibitory activity against Ovarian cancer OVCAR-8 cell line was determined; details: Homo sapiens
NCI-H322M = assay: Growth inhibitory activity against non small cell lung cancer NCI-H322M cell line was determined; details: Homo sapiens
SW-620 = assay: Growth inhibitory activity against colon cancer SW-620 cell line was determined; details: Homo sapiens
SK-MEL-5 = assay: Growth inhibitory activity against Melanoma SK-MEL-5 cell line was determined; details: Homo sapiens
OVCAR-5 = assay: Growth inhibitory activity against Ovarian cancer OVCAR-5 cell line was determined; details: Homo sapiens
UACC-62 = assay: Growth inhibitory activity against Melanoma UACC-62 cell line was determined; details: Homo sapiens
NCI-H522 = assay: Growth inhibitory activity against non small cell lung cancer H522 cell line was determined; details: Homo sapiens
NCI-H226 = assay: Growth inhibitory activity against non small cell lung cancer NCI-H226 cell line was determined; details: Homo sapiens
SF-268 [1] = assay: Growth inhibitory activity against CNS cancer SF-268 cell line was determined; details: Homo sapiens
PC-3 = assay: Growth inhibitory activity against Prostate cancer PC-3 cell line was determined; details: Homo sapiens
K562 = assay: Growth inhibitory activity against Leukemia K-562 cell line was determined; details: Homo sapiens
HOP-92 = assay: Growth inhibitory activity against non small cell lung cancer HOP-92 cell line was determined; details: Homo sapiens
NCI-H460 [2] = assay: Growth inhibitory activity against non small cell lung cancer H460 cell line was determined; details: Homo sapiens
NCI-H460 [3] = assay: In vitro percent of proliferation of vehicle treated NCI-H460 human lung cell lines was determined at 0.0010 M concentration
UACC-257 = assay: Growth inhibitory activity against Melanoma UACC-257 cell line was determined; details: Homo sapiens
OVCAR-3 = assay: Growth inhibitory activity against Ovarian cancer OVCAR-3 cell line was determined; details: Homo sapiens
HCT-15 = assay: Growth inhibitory activity against colon cancer HCT-15 cell line was determined; details: Homo sapiens
SF-268 [4] = assay: In vitro percent of proliferation of vehicle treated SF-268 human CNS cell lines was determined at 0.0010 M concentration
RXF 393 = assay: Growth inhibitory activity against Renal cancer RXF 393 cell line was determined; details: Homo sapiens
A549 = assay: Growth inhibitory activity against non small cell lung cancer A549/ATCC cells; details: Homo sapiens
RPMI-8226 = assay: Growth inhibitory activity against Leukemia RPMI-8226 cell line was determined; details: Homo sapiens
SNB-19 = assay: Growth inhibitory activity against CNS cancer SNB-19 cell line was determined; details: Homo sapiens
SK-MEL-28 = assay: Growth inhibitory activity against Melanoma SK-MEL-28 cell line was determined; details: Homo sapiens
786-0 = assay: Growth inhibitory activity against Renal cancer 786-0 cell line was determined; details: Homo sapiens
COLO 205 = assay: Growth inhibitory activity against colon cancer COLO 205 cell line was determined; details: Homo sapiens
ACHN = assay: Growth inhibitory activity against Renal cancer ACHN cell line was determined; details: Homo sapiens
SF-295 = assay: Growth inhibitory activity against CNS cancer SF-295 cell line was determined; details: Homo sapiens
MCF7 [5] = assay: In vitro percent of proliferation of vehicle treated MCF-7 human breast cell lines was determined at 0.0010 M concentration
BT-549 = assay: Growth inhibitory activity against Breast cancer BT-549 cell line was determined; details: Homo sapiens
HCT-116 = assay: Growth inhibitory activity against colon cancer HCT116 cell line was determined; details: Homo sapiens
U-251 = assay: Growth inhibitory activity against CNS cancer U251 cell line was determined; details: Homo sapiens
Hs-578T = assay: Growth inhibitory activity against Breast cancer HS 578T cell line was determined; details: Homo sapiens
MCF7 [6] = assay: Growth inhibitory activity against Breast cancer MCF-7 cell line was determined; details: Homo sapiens
LOX IMVI = assay: Growth inhibitory activity against Melanoma LOX IMVI cell line; details: Homo sapiens
M14 = assay: Growth inhibitory activity against Melanoma M14 cell line was determined; details: Homo sapiens
KM12 = assay: Growth inhibitory activity against colon cancer KM12 cell line was determined; details: Homo sapiens
EKVX = assay: Growth inhibitory activity against non small cell lung cancer EKVX cell line was determined; details: Homo sapiens
HT-29 = assay: Growth inhibitory activity against colon cancer HT-29 cell line was determined; details: Homo sapiens
MDA-MB-231 = assay: Growth inhibitory activity against Breast cancer MDA-MB-231/ATCC cell line was determined; details: Homo sapiens
MOLT-4 = assay: Growth inhibitory activity against Leukemia MOLT-4 cell line was determined; details: Homo sapiens
HL-60 = assay: Growth inhibitory activity against Leukemia HL-60(TB) cell line was determined; details: Homo sapiens
NCI-H23 = assay: Growth inhibitory activity against non small cell lung cancer NCI-H23 cell line was determined; details: Homo sapiens
CAKI-1 = assay: Growth inhibitory activity against Renal cancer CAKI-1 cell line was determined; details: Homo sapiens
MDA-MB-435 = assay: Growth inhibitory activity against Breast cancer MDA-MB-435 cell line was determined; details: Homo sapiens
TK-10 = assay: Growth inhibitory activity against Renal cancer TK-10 cell line was determined; details: Homo sapiens
SN12C = assay: Growth inhibitory activity against Renal cancer SN12C cell line was determined; details: Homo sapiens

## COc1cccc(OC(=O)c2ccccc2Nc2ccnc(C(F)(F)F)c2)c1
HOP-62
  GI50: 2.8 µM
OVCAR-8
  GI50: 3.6 µM
NCI-H322M
  GI50: 7.4 µM
SW-620
  GI50: 4.4 µM
SK-MEL-5
  GI50: 2.2 µM
OVCAR-5
  GI50: 3.5 µM
UACC-62
  GI50: 3.1 µM
NCI-H522
  GI50: 7.6 µM
NCI-H226
  GI50: 8.1 µM
SF-268 [1]
  GI50: 4.7 µM
PC-3
  GI50: 3.2 µM
K562
  GI50: 0.74 µM
HOP-92
  GI50: 5.7 µM
NCI-H460 [2]
  GI50: 4.1 µM
NCI-H460 [3]
  Proliferation: 13%
UACC-257
  GI50: 5.4 µM
OVCAR-3
  GI50: 1.6 µM
HCT-15
  GI50: 2.8 µM
SF-268 [4]
  Proliferation: 43%
RXF 393
  GI50: 21 µM
A549
  GI50: 3.2 µM
RPMI-8226
  GI50: 1 µM
SNB-19
  GI50: 3.5 µM
SK-MEL-28
  GI50: 12 µM
786-0
  GI50: 3.4 µM
COLO 205
  GI50: 2.2 µM
ACHN
  GI50: 3.4 µM
SF-295
  GI50: 2.5 µM
MCF7 [5]
  Proliferation: 42%
BT-549
  GI50: 8.1 µM
HCT-116
  GI50: 1.1 µM
U-251
  GI50: 2.9 µM
Hs-578T
  GI50: 4.9 µM
MCF7 [6]
  GI50: 7.6 µM
LOX IMVI
  GI50: 1.1 µM
M14
  GI50: 1.3 µM
KM12
  GI50: 2.6 µM
EKVX
  GI50: 6.6 µM
HT-29
  GI50: 3.7 µM
MDA-MB-231
  GI50: 2.1 µM
MOLT-4
  GI50: 0.69 µM
HL-60
  GI50: 2.1 µM
NCI-H23
  GI50: 2 µM
CAKI-1
  GI50: 2.7 µM
MDA-MB-435
  GI50: 1 µM
TK-10
  GI50: 11 µM
SN12C
  GI50: 5.4 µM

## O=C(Oc1c(Cl)cc(Cl)cc1Cl)c1ccccc1Nc1ccnc(C(F)(F)F)c1
HOP-62
  GI50: 2.7 µM
OVCAR-8
  GI50: 3 µM
NCI-H322M
  GI50: 20 µM
SW-620
  GI50: 4.6 µM
SK-MEL-5
  GI50: 3.1 µM
OVCAR-5
  GI50: 4.1 µM
UACC-62
  GI50: 1.7 µM
NCI-H522
  GI50: 5.7 µM
NCI-H226
  GI50: 5.9 µM
SF-268 [1]
  GI50: 3.9 µM
PC-3
  GI50: 15 µM
K562
  GI50: 2.4 µM
HOP-92
  GI50: 100 µM
NCI-H460 [2]
  GI50: 3.4 µM
NCI-H460 [3]
  Proliferation: 9%
UACC-257
  GI50: 12 µM
OVCAR-3
  GI50: 4.3 µM
HCT-15
  GI50: 2.7 µM
SF-268 [4]
  Proliferation: 55%
RXF 393
  GI50: 9.5 µM
A549
  GI50: 3.9 µM
SNB-19
  GI50: 7.1 µM
SK-MEL-28
  GI50: 24 µM
786-0
  GI50: 2.9 µM
COLO 205
  GI50: 6.3 µM
ACHN
  GI50: 2.4 µM
SF-295
  GI50: 4.2 µM
MCF7 [5]
  Proliferation: 12%
BT-549
  GI50: 2.4 µM
HCT-116
  GI50: 1.7 µM
U-251
  GI50: 3 µM
Hs-578T
  GI50: 2.6 µM
MCF7 [6]
  GI50: 4.7 µM
LOX IMVI
  GI50: 2 µM
M14
  GI50: 2.1 µM
KM12
  GI50: 4.1 µM
EKVX
  GI50: 3.3 µM
HT-29
  GI50: 4.6 µM
MDA-MB-231
  GI50: 3.2 µM
MOLT-4
  GI50: 100 µM
HL-60
  GI50: 3.9 µM
NCI-H23
  GI50: 2.6 µM
CAKI-1
  GI50: 7.1 µM
MDA-MB-435
  GI50: 1.6 µM
TK-10
  GI50: 3.4 µM
SN12C
  GI50: 3.1 µM
